In patent publication US5284853A, “Angiotensin II receptor blocking 2,3,6 substituted quinazolinones” (American Cyanamid Company, priority 1993, dated 1994):
Where “and” joins values, the source holds several entries; their conditions need not be identical. Identical values can stand only once.

Assays:
[1] = target: T1, Angiotensin II Receptor (Bos taurus, UniProt P25104); assay: Receptor binding assay: competition of [^125 I](Sar^1,Ile^8)AngII binding to beef adrenal cortex microsomal membranes; settings: 60 min, room temperature, pH 7.4
T1 construct: The brownish tissue forming the adrenal cortex is scraped off and finely minced with scissors before homogenization; tissue local slaughter house (Maxwell-Cohen); host or cells: beef adrenal cortex, microsomal membranes (100,000×g pellet)
T1 sequence (P25104 1-359): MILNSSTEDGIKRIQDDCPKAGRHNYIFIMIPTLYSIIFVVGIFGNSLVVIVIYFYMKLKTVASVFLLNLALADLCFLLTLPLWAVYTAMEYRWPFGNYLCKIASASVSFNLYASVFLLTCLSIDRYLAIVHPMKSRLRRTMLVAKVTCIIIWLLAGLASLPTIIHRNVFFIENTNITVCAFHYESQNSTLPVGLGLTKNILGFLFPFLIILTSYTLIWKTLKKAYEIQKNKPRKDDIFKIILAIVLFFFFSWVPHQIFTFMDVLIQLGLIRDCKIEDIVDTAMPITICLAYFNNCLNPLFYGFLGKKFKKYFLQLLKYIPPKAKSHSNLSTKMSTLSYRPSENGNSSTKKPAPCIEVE
Source text: Beef adrenals are obtained from a local slaughter house (Maxwell-Cohen). [^125 […]. 2200 Ci/mmole, is purchased from Dupont (KEN@, Boston, Mass.). All unlabeled AngII analogs, Dimethylsulfoxide (DMSO), nucleotides, bovine serum albumin (BBA) are purchased from Sigma Chemical Co., St. Louis, MO U.S.A. Approximately sixteen (16) to twenty (20) beef adrenal glands are processed as follows: fresh adrenal glands received on crushed ice are cleaned of fatty tissues and the tough membranes encapsulating the glands are removed and discarded. The brownish tissue forming the adrenal cortex is scraped off and finely minced with scissors before homogenization care is taken to avoid contamination with medullary tissue during dissection. […] Unless otherwise indicated, all subsequent operations are done at […]. […] The homogenate is centrifuged first at low speed (3,000×g) for 10 min. […] This P2 pellet is discarded and the liquid phase is carefully decanted off in clean centrifuge tubes and recentrifuged at high speed (100,000×g) for 60 min. The translucent final pellet is harvested and combined in a small volume (20-50.0 ml) of […] Tris.HCl buffer, pH 7.2. A 100 ul aliquot is withdrawn and the protein content of the preparation is determined by the Lowry's method (Lowry, O. H., Rosebrough, N. P., Parr, A. L. and Randall, R. J., Protein measurement with Folin phenol reagent. J. Biol. Chem., […], 265-275, 1951). The pelleted membrane is reconstituted in 50.0 mM Tris.HCl buffer containing 0.1 mM of phenylmethylsulfonyl fluoride (PMSF) to give approximately a protein concentration of 2.5 mg per ml of tissue suspension. […] In competition studies, experimental compounds are diluted in dimethylsulfoxide (DMSO) and added in 20 ul to wells before the introduction of tissue membranes. This concentration of DMSO is found to have no negative effects on the binding of [^125 I] ([…] to the membranes. Assays are performed in triplicate. The wells are left undisturbed for 60 min. at room temperature. Following incubation, all wells are harvested at once with a Brandel® Harvester especially designed for a 96 well plate (Brandel® Biomedical Research & Development Labs. Inc., Gaithersburg, MD, U.S.A.). The filter discs are washed with 10×1.0 ml of cold 0.9% NaCl to remove unbound ligand. Presoaking the filter sheet in 0.1% polyethyleneimine in normal saline (PEI/Saline) greatly reduces the radioactivity retained by the filter blanks. This method is routinely used. The filters are removed from the filter grid and counted in a Parkard® Cobra Gamma Counter for 1 min. (Packard Instrument Co., Downers Grove, Ill, U.S.A.). The binding data are analyzed by the non-linear interactive "LUNDON-11" program (LUNDON SOFTWARE Inc., Cleveland, OH U.S.A.).

[2] = test system: Angiotensin II (AII) vasopressor response; assay: AII Challenge: antagonism of the angiotensin II vasopressor response in conscious SHR; type: in vivo, Spontaneously hypertensive rats (Male okamoto-Aoki SHR); settings: 5 mg/kg I.V.; for Average Change / Inhibition: n = 2; for Change / Control Before AII / Response After AII: per rat
Source text: […] Conscious Male okamoto-Aoki SHR, 16-20 weeks old, weighing approximately 330 g are purchased from Charles River Labs (Wilmington, MA). Conscious rats are restrained in a supine position with elastic tape. The area at the base of the tail is locally anesthetized by subcutaneous infiltration with 2% procaine. […] The cannula is secured, heparinized (1,000 I.U./ml), sealed and the wound is closed. The animals are placed in plastic restraining cages in an upright position. The cannula is attached to a Statham P23Db pressure transducer, and pulsatile blood pressure is recorded to 10-15 minutes with a Gould Brush recorder. (Chan et al., (Drug Development Res., 18:75-94, 1989). […] Co., St. […] […] […] […] […] A compound is considered active if at 30 mg/kg i.v. it antagonized at least 50% of the response.

[3] = AII 0.05 mcg/kg IV, 30 min post dose
[4] = AII 0.05 mcg/kg IV, 60 min post dose
[5] = AII 0.05 mcg/kg IV, 90 min post dose
[6] = AII 0.05 mcg/kg IV, 180 min post dose
[7] = AII 0.1 mcg/kg IV, 30 min post dose
[8] = AII 0.1 mcg/kg IV, 60 min post dose
[9] = AII 0.1 mcg/kg IV, 90 min post dose
[10] = AII 0.1 mcg/kg IV, 120 min post dose
[11] = AII 0.1 mcg/kg IV, 180 min post dose
[12] = AII 0.5 mcg/kg IV, 120 min post dose

CCCCc1nc2ccc(C3CC(c4ccc(C)cc4)=NO3)cc2c(=O)n1Cc1ccc(-c2ccccc2-c2nnn[nH]2)cc1 (stereo not shown) [Example 23, 2-Butyl-6-[4,5-dihydro-3-(4-methylphenyl)-5-isoxazolyl]-3-[[2'-(lH-tetrazol-5-yl)[1,1'-biphenyl]-4-yl]methyl]-4(3H)-quinazolinone]
IC50 [1]: 70 nM

CCCCc1nc2ccc(C3CC(c4ccc(C)s4)=NO3)cc2c(=O)n1Cc1ccc(-c2ccccc2-c2nnn[nH]2)cc1 (stereo not shown) [Example 21]
IC50 [1]: 330 nM
Average Change [2, 3]: 13.5 mmhg
Inhibition [2, 3]: 72%
Change [2, 3]: 17 mmhg and 10 mmhg
Control Before AII [2, 3]: 188 mmhg and 180 mmhg
Response After AII [2, 3]: 205 mmhg and 190 mmhg
Average Change [2, 4]: 25 mmhg
Inhibition [2, 4]: 47%
Change [2, 4]: 35 mmhg and 15 mmhg
Control Before AII [2, 4]: 175 mmhg
Response After AII [2, 4]: 210 mmhg and 190 mmhg
Average Change [2, 5]: 24 mmhg
Inhibition [2, 5]: 49%
Change [2, 5]: 25 mmhg and 23 mmhg
Control Before AII [2, 5]: 170 mmhg and 157 mmhg
Response After AII [2, 5]: 195 mmhg and 180 mmhg
Average Change [2, 6]: 30 mmhg
Inhibition [2, 6]: 37%
Change [2, 6]: 40 mmhg and 20 mmhg
Control Before AII [2, 6]: 170 mmhg and 160 mmhg
Response After AII [2, 6]: 210 mmhg and 180 mmhg
Average Change [2, 7]: 27.5 mmhg
Inhibition [2, 7]: 41%
Change [2, 7]: 30 mmhg and 25 mmhg
Control Before AII [2, 7]: 180 mmhg and 175 mmhg
Response After AII [2, 7]: 210 mmhg and 200 mmhg
Average Change [2, 8]: 34 mmhg
Inhibition [2, 8]: 28%
Change [2, 8]: 38 mmhg and 30 mmhg
Control Before AII [2, 8]: 175 mmhg and 165 mmhg
Response After AII [2, 8]: 213 mmhg and 195 mmhg
Average Change [2, 9]: 31 mmhg
Inhibition [2, 9]: 34%
Change [2, 9]: 40 mmhg and 22 mmhg
Control Before AII [2, 9]: 175 mmhg and 163 mmhg
Response After AII [2, 9]: 215 mmhg and 185 mmhg
Average Change [2, 10]: 31.5 mmhg
Inhibition [2, 10]: 33%
Change [2, 10]: 40 mmhg and 23 mmhg
Control Before AII [2, 10]: 175 mmhg and 160 mmhg
Response After AII [2, 10]: 215 mmhg and 183 mmhg
Average Change [2, 11]: 40 mmhg
Inhibition [2, 11]: 15%
Change [2, 11]: 50 mmhg and 30 mmhg
Control Before AII [2, 11]: 175 mmhg and 160 mmhg
Response After AII [2, 11]: 225 mmhg and 190 mmhg
Average Change [2, 12]: 27.5 mmhg
Inhibition [2, 12]: 42%
Change [2, 12]: 35 mmhg and 20 mmhg
Control Before AII [2, 12]: 185 mmhg and 160 mmhg
Response After AII [2, 12]: 220 mmhg and 180 mmhg
